Measurements taken from PubChem BioAssay (NCI).
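Method: 48-hour compound exposure of cells in 96-well plates, five concentrations, linear interpolation of endpoints. The concentration for 50% growth inhibition is given as GI50. TGI: total growth inhibition.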

Assays:
Assay in all cases: inhibition of tumour cell growth, NCI panel, 48 h
U251 CNS = tested on: U251 CNS
ACHN renal = tested on: ACHN renal
OVCAR-8 ovarian = tested on: OVCAR-8 ovarian
RXF 393 renal = tested on: RXF 393 renal
SK-MEL-5 melanoma = tested on: SK-MEL-5 melanoma
A549 NSCLC = tested on: A549 NSCLC
SF-295 CNS = tested on: SF-295 CNS
NCI-H460 lung = tested on: NCI-H460 lung
HOP-18 NSCLC = tested on: HOP-18 NSCLC
SNB-19 CNS = tested on: SNB-19 CNS
M14 melanoma = tested on: M14 melanoma
HCC-2998 colon = tested on: HCC-2998 colon
UO-31 renal = tested on: UO-31 renal
LOX IMVI melanoma = tested on: LOX IMVI melanoma
K-562 leukemia = tested on: K-562 leukemia
TK-10 renal = tested on: TK-10 renal
UACC-62 melanoma = tested on: UACC-62 melanoma
SNB-75 CNS = tested on: SNB-75 CNS
NCI-H23 lung = tested on: NCI-H23 lung
M19-MEL melanoma = tested on: M19-MEL melanoma
MOLT-4 leukemia = tested on: MOLT-4 leukemia
EKVX NSCLC = tested on: EKVX NSCLC
SNB-78 CNS = tested on: SNB-78 CNS
KM12 colon = tested on: KM12 colon
MALME-3M melanoma = tested on: MALME-3M melanoma
LXFL 529 NSCLC = tested on: LXFL 529 NSCLC
786-0 renal = tested on: 786-0 renal
OVCAR-5 ovarian = tested on: OVCAR-5 ovarian
HCT-116 colon = tested on: HCT-116 colon
SF-539 CNS = tested on: SF-539 CNS
NCI-H226 lung = tested on: NCI-H226 lung
HOP-62 NSCLC = tested on: HOP-62 NSCLC
HL-60(TB) leukemia = tested on: HL-60(TB) leukemia
KM20L2 colon = tested on: KM20L2 colon
IGROV1 ovarian = tested on: IGROV1 ovarian
SK-OV-3 ovarian = tested on: SK-OV-3 ovarian
RPMI-8226 leukemia = tested on: RPMI-8226 leukemia
UACC-257 melanoma = tested on: UACC-257 melanoma
COLO 205 colon = tested on: COLO 205 colon
SN12C renal = tested on: SN12C renal
SK-MEL-2 melanoma = tested on: SK-MEL-2 melanoma
SK-MEL-28 melanoma = tested on: SK-MEL-28 melanoma
OVCAR-3 ovarian = tested on: OVCAR-3 ovarian

CC[N-]c1nnnn1CC.[Au+].c1ccc([PH+](c2ccccc2)c2ccccc2)cc1
GI50 (U251 CNS): 1.96 µM
TGI (U251 CNS): 6.48 µM
GI50 (ACHN renal): 1.62 µM
TGI (ACHN renal): 3.02 µM
GI50 (OVCAR-8 ovarian): 1.57 µM
TGI (OVCAR-8 ovarian): 3.07 µM
GI50 (RXF 393 renal): 0.242 µM
TGI (RXF 393 renal): 0.801 µM
GI50 (SK-MEL-5 melanoma): 0.811 µM
TGI (SK-MEL-5 melanoma): 2.22 µM
GI50 (A549 NSCLC): 4.93 µM
TGI (A549 NSCLC): > 53.5 µM
GI50 (SF-295 CNS): 3.09 µM
TGI (SF-295 CNS): 10 µM
GI50 (NCI-H460 lung): 3.71 µM
TGI (NCI-H460 lung): > 20.7 µM
GI50 (HOP-18 NSCLC): 1.82 µM
TGI (HOP-18 NSCLC): 3.23 µM
GI50 (SNB-19 CNS): 1.44 µM
TGI (SNB-19 CNS): 2.76 µM
GI50 (M14 melanoma): 1.29 µM
TGI (M14 melanoma): 2.79 µM
GI50 (HCC-2998 colon): 1.68 µM
TGI (HCC-2998 colon): 3.15 µM
GI50 (UO-31 renal): 1.66 µM
TGI (UO-31 renal): 3.14 µM
GI50 (LOX IMVI melanoma): 1.45 µM
TGI (LOX IMVI melanoma): 2.93 µM
GI50 (K-562 leukemia): 0.342 µM
TGI (K-562 leukemia): 1.91 µM
GI50 (TK-10 renal): 1.66 µM
TGI (TK-10 renal): 3.07 µM
GI50 (UACC-62 melanoma): 1.2 µM
TGI (UACC-62 melanoma): 3.18 µM
GI50 (SNB-75 CNS): 1.35 µM
TGI (SNB-75 CNS): 3.46 µM
GI50 (NCI-H23 lung): 1.39 µM
TGI (NCI-H23 lung): 3.01 µM
TGI (M19-MEL melanoma): 4.24 µM
GI50 (MOLT-4 leukemia): 0.716 µM
TGI (MOLT-4 leukemia): 3.74 µM
GI50 (EKVX NSCLC): 1.7 µM
TGI (EKVX NSCLC): 4.04 µM
GI50 (SNB-78 CNS): 2.5 µM
TGI (SNB-78 CNS): > 100 µM
GI50 (KM12 colon): 2.93 µM
TGI (KM12 colon): 11.6 µM
GI50 (MALME-3M melanoma): 1.24 µM
TGI (MALME-3M melanoma): 2.55 µM
GI50 (LXFL 529 NSCLC): 0.723 µM
TGI (LXFL 529 NSCLC): 2.04 µM
GI50 (786-0 renal): 1.37 µM
TGI (786-0 renal): 2.67 µM
GI50 (OVCAR-5 ovarian): 4.5 µM
TGI (OVCAR-5 ovarian): 9.16 µM
GI50 (HCT-116 colon): 1.55 µM
TGI (HCT-116 colon): 2.9 µM
GI50 (SF-539 CNS): 2.1 µM
TGI (SF-539 CNS): 5.79 µM
GI50 (NCI-H226 lung): 1.44 µM
TGI (NCI-H226 lung): 3.2 µM
GI50 (HOP-62 NSCLC): 2.07 µM
TGI (HOP-62 NSCLC): 3.72 µM
GI50 (HL-60(TB) leukemia): 0.187 µM
TGI (HL-60(TB) leukemia): 0.68 µM
GI50 (KM20L2 colon): 2 µM
TGI (KM20L2 colon): 12.9 µM
GI50 (IGROV1 ovarian): 2.26 µM
TGI (IGROV1 ovarian): 5.96 µM
GI50 (SK-OV-3 ovarian): 4.95 µM
TGI (SK-OV-3 ovarian): 9.98 µM
GI50 (RPMI-8226 leukemia): 0.568 µM
TGI (RPMI-8226 leukemia): 4.48 µM
GI50 (UACC-257 melanoma): 1.27 µM
TGI (UACC-257 melanoma): 2.72 µM
GI50 (COLO 205 colon): 2.19 µM
TGI (COLO 205 colon): 5.4 µM
GI50 (SN12C renal): 1.65 µM
TGI (SN12C renal): 3.26 µM
GI50 (SK-MEL-2 melanoma): 1.14 µM
TGI (SK-MEL-2 melanoma): 2.39 µM
GI50 (SK-MEL-28 melanoma): 0.677 µM
TGI (SK-MEL-28 melanoma): 2.16 µM
GI50 (OVCAR-3 ovarian): 1.76 µM
TGI (OVCAR-3 ovarian): 3.15 µM
